From patent US11484543B2, “Compositions and methods for diagnosing and treating diseases and disorders associated with mutant KCNJ5” (The Rockefeller University, priority 2017, dated 2022)

Target: T1, KCNJ3/KCNJ5^WT (Homo sapiens, UniProt P48544)
T1 construct: GFP; expressed in transfected cells; host or cells: HEK293T (American Type Culture Collection), transient co-transfection
T1 sequence (P48544 1-419): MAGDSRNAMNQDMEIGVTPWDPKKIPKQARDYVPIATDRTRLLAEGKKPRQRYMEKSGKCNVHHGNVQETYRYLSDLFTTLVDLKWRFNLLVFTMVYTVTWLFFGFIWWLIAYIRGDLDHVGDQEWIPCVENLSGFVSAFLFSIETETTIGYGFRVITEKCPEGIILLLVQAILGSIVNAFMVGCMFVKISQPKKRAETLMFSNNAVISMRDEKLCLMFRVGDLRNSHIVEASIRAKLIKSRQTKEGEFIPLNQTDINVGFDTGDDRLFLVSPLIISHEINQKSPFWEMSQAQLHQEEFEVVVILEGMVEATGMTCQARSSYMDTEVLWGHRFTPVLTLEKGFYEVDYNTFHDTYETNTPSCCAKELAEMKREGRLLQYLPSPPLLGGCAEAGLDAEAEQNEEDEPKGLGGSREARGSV
T1 sequence (P48549 1-501 partner): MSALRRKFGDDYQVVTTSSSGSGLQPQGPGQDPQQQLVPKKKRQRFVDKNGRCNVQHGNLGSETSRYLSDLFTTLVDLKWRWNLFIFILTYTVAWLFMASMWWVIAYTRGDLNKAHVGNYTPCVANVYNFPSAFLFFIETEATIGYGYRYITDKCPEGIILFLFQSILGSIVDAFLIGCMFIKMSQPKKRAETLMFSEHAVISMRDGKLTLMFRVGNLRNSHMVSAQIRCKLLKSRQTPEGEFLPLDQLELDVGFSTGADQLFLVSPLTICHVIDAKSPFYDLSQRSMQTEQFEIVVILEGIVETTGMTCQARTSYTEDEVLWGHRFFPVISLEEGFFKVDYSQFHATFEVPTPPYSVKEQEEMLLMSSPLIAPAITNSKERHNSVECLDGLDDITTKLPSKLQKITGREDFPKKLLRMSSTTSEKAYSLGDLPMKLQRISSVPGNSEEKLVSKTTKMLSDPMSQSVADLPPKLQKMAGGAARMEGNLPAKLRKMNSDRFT
Assay: Perforated whole-cell patch clamp, KCNJ3/KCNJ5^WT heterotetramers in HEK293T cells
Type: cell-based
Details: 20 μM, 10 minutes after addition
Method: HEK293T cells (American Type Culture Collection) were used for transient expression of GFP-tagged KCNJ5 or KCNJ3. The cells were grown in Dulbecco's modified Eagle medium (DMEM; Invitrogen) supplemented with 10% FBS (Invitrogen) in 5% CO2 and 95% air at 37° C. Cells were grown to 50-70% confluence for transfection, and the corresponding cDNAs (Choi et al., 2011, Science 331:768-772) were simultaneously applied to the cells using TurboFect transfection reagent according to the manufacturer's protocol (Fermentas). […]
Within 24 hr after transfection, the cells were treated with trypsin-containing medium (TrypLE Express) (Gibco) for 10 minutes to detach the cells. […] Fluorescence signal (an indication of positive transfection) was detected with an intensified video imaging system including a SIT 68 camera (Long Island Industries). […] After forming a high resistance seal (>2 GΩ), the membrane capacitance was monitored until the whole-cell patch configuration was formed. The cell membrane capacitance was measured and compensated. The K/cation currents were measured from −80 mV to 20 mV with 20 mV steps by an Axon 200A patch-clamp amplifier. The currents were low-pass filtered at 1 KHz and digitized by an Axon interface (Digidata 1200) and were analyzed using the pClamp software system 9 (Axon). […]

Structure (SMILES): CC[C@H]1OC(=O)[C@H](C)[C@@H](O[C@H]2C[C@@](C)(OC)[C@@H](O)[C@H](C)O2)[C@H](C)[C@@H](O[C@@H]2O[C@H](C)C[C@H](N(C)C)[C@H]2O)[C@](C)(O)C[C@@H](C)/C(=N\OCOCCOC)[C@H](C)[C@@H](O)[C@]1(C)O [Roxithromycin, roxithromycin]
- inhibition of potassium currents in KCNJ3/KCNJ5^WT channels: no inhibition
